Test results taken from US4631292A, “1,3-dioxane derivatives, method of their synthesis and anti-peptic ulcer agent” (Kotobuki Seiyaku Co., Ltd., priority 1983, dated 1986).

Tests used:
[1] = tested on: aspirin-induced pylorus-ligated rats; experiment: Aspirin-induced ulcer in pylorus-ligated rats (method of S. Okabe); assay type: in vivo; conditions: oral dose 500 mg/kg
Procedure: (1) The effect of the compounds of the invention is examined by using aspirin-induced pylorus-ligated rats according to the methods of S. Okabe (Oyo-Yakuri 9 (1), 31-37 1975). The test compounds are given orally at a dose of 500 mg./kg.

ethanol induced ulcer = experiment: Ethanol induced ulcer (method of L. Robert, modified); assay type: in vivo; conditions: ethanol/HCl induced ulcer, rats; for ulcer index (mm): 30 min before ethanol, 1 hour after ethanol
Procedure: (2) The effect on ethanol induced ulcer is examined according to the method of L. Robert (Gastroenterology 77,433-443, 1979) with some modification. Rats are fasted for 24 hrs. and after 30 min. of the oral test drug administration, 1 ml. of 60% ethanol of 150 mM hydrochloric acid solution is given.
Exactly 1 hour later, the animals are sacrificed and the stomach is removed to examine their ulcer index.

SMILES | % inhibition [1] | ulcer index (mm) ± S.E. [1] | % inhibition (ethanol induced ulcer; oral dose 100 mg/kg) | ulcer index (mm) (ethanol induced ulcer; oral dose 100 mg/kg) | % inhibition (ethanol induced ulcer; oral dose 500 mg/kg) | ulcer index (mm) (ethanol induced ulcer; oral dose 500 mg/kg)
CC(C)=CCCC(C)CC1OCCC(C)O1 (centres unmarked) [Compound 2, 2-(2,6-dimethyl-5-heptene)-6-methyl-1,3-dioxane] | 35.9% | 27.8 ± 7.1 mm |  |  |  | 
CC(C)=CCCC1OCCC(C)O1 (centres unmarked) [Compound 1, 2-(4-methyl-3-pentene)-6-methyl-1,3-dioxane] | 50.6% | 11.0 ± 2.98 mm |  |  |  | 
CC(C)=CCCC1(C)OC(C)CC(C)O1 (centres unmarked) [Compound 11, 2-(4-methyl-3-pentenyl)-2-methyl-4,6-dimethyl-1,3-dioxane] | 33.7% | 14.5 ± 5.12 mm |  |  |  | 
CC1CCC(C(C)C)C2(C1)OCCC(C)O2 (centres unmarked) [Compound 6, spiro[2isopropyl-5-methyl-cyclohexane-1,2'-4'-methyl 1',3']dioxane] | 53.9% | 10.3 ± 4.16 mm |  |  |  | 
CC(C)=CCCC1(C)OCCC(C)O1 (centres unmarked) [Compound 5, 2-(4-methyl-3-pentenyl)-2-methyl-4-methyl-1,3-dioxane] | 88.1% | 2.2 ± 0.8 mm | 59.7% | 27.1 ± 7.3 mm | 95.1% | 3.3 ± 1.2 mm
